Data on six compounds can be found in patent publication US7271274B2, “Phenolic antioxidants for the treatment of disorders including arthritis, asthma and coronary artery disease” (AhteroGenics, Inc., priority 2004, dated 2007).

Each structure is given as a SMILES string.

For series [1] the following is noted: clinical trials; cited from earlier work.
The test system of series [2] is murine model of allergic pulmonary inflammation. Particulars: cited from earlier work.
Series [3] has as its system VCAM-1. Put plainly: In Vitro VCAM-1 Assay - Method 2 (19 h predosing, 4 h TNFα stimulation, surface VCAM-1). The class given is cell-based. To be noted: Homo sapiens; HAEC or HPAEC, predosed 19 hours, TNFα 1.5 ng/ml 4 hours. As to the method: Cultured primary human aortic (HAEC) or pulmonary artery (HPAEC) endothelial cells are obtained from BioWhittaker (formerly Clonetics), and are used below passage 9. Cells are seeded in 96-well plates such that they will reach ˜95% confluency by the following day (i.e.10,000 cells/well). Compounds are reconstituted in DMSO (100%) and sonicated to ensure maximum dissolution. Dilutions are then made in DMSO to 500× of final concentrations. These stocks are then diluted 500× into cell culture media (EGM-2 Mv, BioWhittaker) and placed overnight in tissue culture incubator (37° C., 5% CO2) to allow maximum dissolution).
Media is removed from the cells and replaced with the prewarmed dosing media. Cells are predosed in this manner for 19 hours at 37° C., 5% CO2. Remove media again from the cells and replace with prepared dosing media containing TNFα (1.5 ng/ml). Allow stimulation to continue for 4 hours at 37° C., 5% CO2. Media is removed and saved for evaluation of secreted factors as needed. Cells are used for quantitating surface VCAM-1, followed by Hoescht nuclear stain for cell number to determine toxicity. Assay for surface VCAM-1 continues as described in Method 1. IC50's of tested compounds are tabulated in Biological Table 1.

Another series relates to TNF-α. Kind of series: Cytokine screening: LPS-induced secretion of TNF-α from hPBMCs. In kind it is cell-based. Particulars: Homo sapiens. As for the experimental part:
(§1) Fresh cryopreserved hPBMCs (1 million cells/ml; Clonetics, Inc.) were pretreated with test compound for 1 hr in lymphocyte growth media-3 (Clonetics, Inc.), followed by stimulation with 1 μg/ml of LPS for another 2 hr in the presence of test compound. Conditioned media was collected and assayed for secreted TNF-α, IL-1β and […] using commercially available human ELISA kits (R&D Systems). Samples were measured in duplicate and data presented as mean ± standard deviation. Each experiment was repeated at least three times with similar results.

In another series the test system is Male BALB/c mice. Kind of series: mBSA-induced delayed-type hypersensitivity (DTH) model of inflammation in mice. The class given is in vivo. To be noted: vehicle swelling = 100%. As for the experimental part: The methylated bovine serum albumin (mBSA)-induced delayed-type hypersensitivity (DTH) model of mice is generally used for screening compounds with anti-inflammatory effects (Sarnstrand et al., Pharmacol. Exp. Ther. 1999, 288, 1174–84). Compounds of Ex-1 and Ex-2 were tested in this model, dosed subcutaneously at 24 and 2 hrs prior to challenge at doses of 50 and 25 mg/kg with cyclosporin A (CSA) as positive control.
Male BALB/c mice (20–25 g) were sensitized on day 0 by intradermal abdominal injection of 100 μL of a 1:1 emulsion of mBSA (5 mg/ml) and Freund's complete adjuvant. On day 7, the mice were challenged by injecting 25 μL of mBSA (5 mg/ml) into the footpad of the right hindpaw and the left hindpaw was injected with saline. Mice were treated by s.c. injection of test compound 24 hrs and 2 hrs before the challenge. Twenty four hours after challenge mice were sacrificed by CO2 inhalation. The feet were removed by cutting just above the heel with scissors, and the mass of the saline-injected foot was subtracted from the mass of the mBSA injected foot to determine the amount of swelling that occurred in the latter. Inhibition of swelling for test compound group was calculated, taking the swelling of the vehicle-treated group as 100%. The results from the DTH model are summarized for examples 1 and 2 in Biological Table 4 using cyclosporine A (CSA) as a positive control.

Series [4] concerns VCAM-1. Put plainly: In Vitro VCAM-1 Assay - Method 1 (TNF-α stimulated endothelial cells, surface VCAM-1 ELISA). Particulars: Homo sapiens, Endothelial cell; HAEC or HPAEC, TNF-α 1 ng/ml with compound approximately 16 hours. The class given is cell-based. As for the experimental part:
Cell Culture and compound dosing: Cultured primary human aortic (HAEC) or pulmonary (HPAEC) endothelial cells were obtained from Clonetics, Inc., and were used below passage 9. Cells were seeded in 96 well plates such that they would reach 90–95% confluency by the following day. On the following day the cells were stimulated with TNF-α (1 ng/ml) in the presence or absence of compounds dissolved in DMSO such that the final concentration of DMSO is 0.25% or less. To establish a dose curve for each compound, four concentrations in 2- to 5-fold increments were used. Cells were exposed to TNF-α and compounds for approximately 16 hours. The next day the cells were examined under microscope to score for visual signs of toxicity or cell stress.
Following 16 hr exposure to TNF-α and compound the media was discarded and the cells were washed once with Hanks Balanced Salt Solution (HBSS)/Phosphate buffered saline (PBS) (1:1). Primary antibodies against VCAM-1 (0.25 μg/ml in HBSS/PBS+5% FBS) were added and incubated for 30–60 minutes at 37° C. Cells were washed with HBSS/PBS three times, and secondary antibody Horse Radish Peroxidase (HRP)-conjugated goat anti-mouse IgG (1:500 in HBSS/PBS+5% FBS) were added and incubated for 30 minutes at 37° C. Cells were washed with HBSS/PBS four time and TMB substrate were added and incubated at room temperature in the dark until there was adequate development of blue color. The length of time of incubation was typically 5–15 minutes. 2N sulfuric acid was added to stop the color development and the data was collected by reading the absorbance on a BioRad ELISA plate reader at OD 450 nm. The results are expressed as IC50 values (the concentration (micromolar) of compound required to inhibit 50% of the maximal response of the control sample stimulated by TNF-α only). IC50's of tested compounds are tabulated in Biological Table 1.

Another series has as its system IL-6. Kind of series: Cytokine screening: LPS-induced secretion of IL-6 from hPBMCs. In kind it is cell-based. Particulars: Homo sapiens, Biological Table 2, LPS 1 μg/ml, mean ± standard deviation. As to the method:
as §1

A further series relates to Balb/C mice. Kind of series: In vivo asthma model (ovalbumin-sensitized mice, BAL fluid eosinophilia). To be noted: 25 mg/kg, sc, qd; BALF eosinophilia vs vehicle control. As to the method:
Balb/C mice (6–8 weeks old) were sensitized to ovalbumin (ova) (8 ug ova absorbed in 3.3 mg Alum inject) on days 0 and 5. On day 12, the mice were aerosol challenged with 0.5% ovalbumin dissolved in sterile saline for 1 hr in the AM, and then again in the PM (at least 4 hr apart). On day 14, the mice were anesthetized with ketamine/xylazine/acepromazine cocktail, exsanguinated, and then euthanized. Following blood collection, bronchoaveolar lavage (BAL) was performed on each animal. Total cell counts were conducted on the lavage fluid, which was subsequently diluted with cell media 1:1. Slides of the lavage fluid were made by spinning the samples with a cytospin centrifuge and then air drying. Cell differentials of the lavage fluid were determined by microscopic evaluation of hematoxylin and eosin-stained slides. Data are expressed as the % inhibition of eosinophilia in the BAL fluid compared to the vehicle control. […] The formulations used contained various mixtures of the following excipients (propylene glycol, polyethylene glycol, Tween 80, Glycofurol).

Another series deals with IL-1β. Kind of series: Cytokine screening: LPS-induced secretion of IL-1β from hPBMCs. To be noted: Homo sapiens, Biological Table 2, LPS 1 μg/ml, mean ± standard deviation. In kind it is cell-based. As to the method: as §1
For the next series, the system named is Female Lewis rats. Kind of series: In vivo rheumatoid arthritis model (Freund's complete adjuvant, paw swelling). Particulars: paw swelling vs vehicle control. As for the experimental part: Female Lewis rats (200–250 g) were sensitized with Freund's complete adjuvant (100 ug) by subcutaneous injection at the base of the tail. Paw swelling was monitored by measuring the volume of each foot with a plethysmometer on days 5, 8, 12–15. Animals were euthanized on day 15. […] Data is expressed as the % inhibition of paw swelling (AUC of the paw volume vs time curve d5–15) compared with vehicle control. The formulations used contained various mixtures of the following excipients (propylene glycol, polyethylene glycol, Tween 80, Glycofurol).

Series [5] concerns LDL receptor-deficient rabbits. Particulars: cited from earlier work.
Setting [6] is: Biological Table 3, LPS-induced secretion from hPBMN cells, average of at least three determinations.
Setting [7] is: Biological Table 2, hPBMCs, LPS 1 μg/ml, mean ± standard deviation.
The mark [8] stands for this setting: 25 mg/Kg s.c. 24 hrs and 2 hrs before challenge.
Where [9] appears, read: 50 mg/Kg s.c. 24 hrs and 2 hrs before challenge.

Regarding `CC(C)(Sc1cc(C(C)(C)C)c(O)c(C(C)(C)C)c1)Sc1cc(C(C)(C)C)c(OC(=O)CCC(=O)O)c(C(C)(C)C)c1` [AGI-1067], the QTc prolongation entry in series [1] was “did not cause QTc prolongation”.
For `COc1cc(CC(=O)N[C@@H](CC(C)C)c2cc(CCC(=O)O)on2)ccc1NC(=O)Nc1ccccc1C` [CP-664511], in series [2], the airway eosinophil infiltration result is “inhibited airway eosinophil infiltration”.
For orientation: IC50 means the midpoint of a concentration-inhibition curve. The melting point is the temperature, or range, at which the solid turns liquid. In turn, `CC(C)(Sc1cc(C(C)(C)C)c(O)c(C(C)(C)C)c1)Sc1cc(C(C)(C)C)c(OC[C@H](O)[C@@H](O)CO)c(C(C)(C)C)c1` [Ex-1, 4-{2,6-Di-tert-butyl-4-[1-(3,5-di-tert-butyl-4-hydroxyphenylsulfanyl)-1-methylethyl-sulfanyl]phenoxy}butane-1,2(S),3(S)-triol] had a melting point of 69 to 71 °C. This compound also showed an IC50 in the series with VCAM-1 [3] of 9 µM. Further, the concentration for half-maximal inhibition (IC50) with TNF-α (setting [6]) came out at 5.1 µM. The same compound showed a 50% inhibitory concentration (IC50) in the series with TNF-α (setting [7]) of 4 ± 1 µM. Further, in the series with Male BALB/c mice (setting [8]), the “Percent Inhibition (of swelling)” value was “+40%”. In addition, the “Percent Inhibition (of swelling)” value in the series on Male BALB/c mice (setting [9]) was “+65%”. Besides, the IC50 in the series with VCAM-1 [4] was 7 µM. Besides, the IC50 in the series on IL-6 stood at 1.7 ± 0.9 µM. In the series with Balb/C mice, the “Inhibition of BAL fluid eosinophilia (asthma model)” value (from here on “Inhibition … (asthma model)”) came to 87 percentage. The compound further returned a concentration for half-maximal inhibition (IC50) in the series on IL-1β of 7.7 ± 0.6 µM.
As for `CC(C)(Sc1cc(C(C)(C)C)c(O)c(C(C)(C)C)c1)Sc1cc(C(C)(C)C)c(OC[C@@H](O)[C@H](O)CO)c(C(C)(C)C)c1` [Ex-2, 4-{2,6-Di-tert-butyl-4-[1-(3,5-di-tert-butyl-4-hydroxyphenylsulfanyl)-1-methylethylsulfanyl]-phenoxy}butane-1,2(R),3(R)-triol], the melting point lay in the range of 69 to 71 °C. Inhibition in the series with TNF-α (setting [6]) was half-maximal at 1.6 µM (IC50). This compound showed an IC50 with TNF-α (setting [7]) of 3.3 ± 0.3 µM. Further, the “Percent Inhibition (of swelling)” value with Male BALB/c mice (setting [8]) is listed as “+25%”. Besides, the “Percent Inhibition (of swelling)” value in the series with Male BALB/c mice (setting [9]) was “+60%”. Moreover, in the series with VCAM-1 [4], the IC50 was 5 µM. This compound also showed a 50% inhibitory concentration (IC50) with IL-6 of 1.2 ± 0.3 µM. In addition, the “Inhibition … (asthma model)” value in the series on Balb/C mice came out at 65 percentage. In addition, the “Rheumatoid arthritis model (25 mg/kg, sc, qd, inhibition of paw swelling in percentage)” value in the series on Female Lewis rats amounted to 75 percentage. This compound also came in with an IC50 in the series with IL-1β of 8 µM.
In turn, `CC(C)(Sc1cc(C(C)(C)C)c(O)c(C(C)(C)C)c1)Sc1cc(C(C)(C)C)c(OCC[C@H](O)CO)c(C(C)(C)C)c1` [Ex-10, 4-{2,6-Di-tert-butyl-4-[1-(3,5-di-tert-butyl-4-hydroxy-phenylsulfanyl)-1-methyl-ethylsulfanyl]-phenoxy}-butane-1,2(S)-diol] displayed a melting point of 110 to 112 °C. In the series with VCAM-1 [3], this compound had a 50% inhibitory concentration (IC50) of 8 µM. The IC50 in the series with TNF-α (setting [6]) came to 3.8 µM. Further, in the series on VCAM-1 [4], the half-maximal inhibitory concentration (IC50) worked out at 40 µM. Also, the “Inhibition … (asthma model)” value in the series on Balb/C mice was found to be 78 percentage. In addition, the “Rheumatoid arthritis model (25 mg/kg, sc, qd, inhibition of paw swelling in percentage)” value with Female Lewis rats was 85 percentage.
As to `CC(C)(Sc1cc(C(C)(C)C)c(O)c(C(C)(C)C)c1)Sc1cc(C(C)(C)C)c(O)c(C(C)(C)C)c1` [probucol, 4,4′-(isopropylidenedithio) bis(2,6-di-tert-butylphenol)], the progression of atherosclerosis result in [5] is “slow the progression of atherosclerosis”.
